Measurements as given in patent US20110200545A1, “DEODORANT COMPOSITION AND METHODS FOR USE THEREOF” (priority 2010, published 2011).

What was measured:
skin = assay: application to skin, detrimental skin effects; format: in vivo
Text: The low pKa results in an acidic solution having a pH of about 1.9, which damages skin and results in skin peeling in the hours and/or days following application to skin.
The pH of skin is about 5.5. When the pH of the skin surface is less than about 3.8, skin peeling results. Additionally, side effects of skin adjusted to a pH of less than about 3.8 include: skin inflammation, dermatitis, itching, and/or sensitizing of the skin.

[1] = pH of acidic solution of the substance by itself; format: physicochemical; conditions: used by itself, unbuffered

For CC(=O)Oc1ccccc1C(=O)O [acetylsalicyclic acid], the “detrimental effects on skin” value (skin; in a composition having a pH of about 3.8 or less) was “an acid burn of the skin, inflammation, itching, sensitizing, dermatitis, and/or skin peeling”, the effect on skin (skin; used by itself, hours and/or days following application to skin) was “acts as a skin peeler” and the “pH of acidic solution” value [1] was “about 1.9”.
